Holding throughout (assay): NCI tumour cell line growth inhibition, 48 h
Experiment [1] concerns NCI-H23 lung.
Experiment [2] deals with MALME-3M melanoma.
Experiment [3] concerns U251 CNS.
Experiment [4] has as its system SW-620 colon.
Experiment [5] relates to HCC-2998 colon.
The subject of experiment [6] is NCI-H226 lung.
In experiment [7] the test system is OVCAR-5 ovarian.
Experiment [8] concerns MDA-MB-231 breast.
Experiment [9] deals with MDA-MB-435.
In experiment [10] the test system is MCF7 breast.

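Test compounds were applied to cells in 96-well plates for 48 hours at 5 doses. GI50 = concentration required for 50% inhibition of growth. TGI: concentration producing complete growth inhibition.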 Some results are limits rather than exact numbers.

Here are results for 33 compounds from PubChem BioAssay (NCI).

For the compound `CC1=C(C(=O)Nc2cc(=O)n(C)c(=O)n2C)C(c2ccc([N+](=O)[O-])cc2)C(C(=O)Nc2cc(=O)n(C)c(=O)n2C)=C(C)N1`, the TGI in experiment [1], in [2], in experiment [3], in experiment [4], in [5] and in experiment [6] was over 100 µM throughout. In [7], this compound gave a TGI of over 100 µM.

For `O=c1cc(-c2ccccc2)oc2cc(O)cc(O)c12`, the TGI in experiment [1] is 62.8 µM; in [2], 51.8 µM; in experiment [3], 87.5 µM; in experiment [5], 38.6 µM; in [6] it was 58.1 µM; in experiment [7], 37.4 µM.

Turning to `CN(CCc1ccccn1)c1nc(=[N+](C)C)ss1`, the TGI in experiment [1], in experiment [2], in experiment [3], in [4], in [5] and in experiment [7] was over 100 µM each time.

Regarding `COc1ccc(Cc2cc3c(cc2OCC(=O)O)OCO3)cc1`, the TGI in [1], in experiment [2], in experiment [4], in experiment [5] and in [7] was over 100 µM in each case.

On to `CC(=O)C1C(=O)NC(=O)C1=O` (centres undefined), for which the TGI in [1], in experiment [2], in experiment [3], in experiment [4], in [5] and in experiment [6] was over 100 µM throughout. The compound also registered a TGI in experiment [7] of over 100 µM.

Consider `CN(C)CCSc1cccc(-c2cc(-c3cccc(SCCN(C)C)c3)nc(SCCN(C)C)n2)c1`, for which the TGI is 15.3 µM in experiment [1]; 3.38 µM in [2]; 3.54 µM in [3]; 3.95 µM in experiment [4]; 7.76 µM in experiment [5]; 19.5 µM in experiment [7].

For `C#CCN(N=O)C(=O)NC(CCCNC(=O)OCc1ccccc1)C(=O)OCc1ccccc1` (centres undefined), the TGI in experiment [1], in [2], in [3], in experiment [4], in experiment [5] and in experiment [6] was over 100 µM throughout. In experiment [7], this compound returned a TGI of over 100 µM.

Turning to `CC(C)C1CC2C(=O)N(c3ccccc3)C(=O)C2c2[nH]c3ccccc3c21` (centres undefined), the TGI in experiment [1] was 84 µM; in experiment [2] it was over 100 µM; in experiment [3], 41.1 µM; in experiment [4] it was over 100 µM; in [5], over 100 µM; in experiment [6] it was 36.8 µM. Also, the TGI in [7] is over 100 µM.

As for `O=C1c2ccccc2NC1(c1ccccc1)c1c(-c2ccccc2)[nH]c2ccccc12` (centres undefined), the TGI in [1], in [3], in experiment [4] and in [5] was over 100 µM throughout.

In the case of `CC1=C(C(=O)NCc2ccccc2)C(c2ccc([N+](=O)[O-])cc2)C(C(=O)NCc2ccccc2)=C(C)N1`, the TGI in experiment [1], in experiment [2], in [3], in experiment [4], in [5] and in [6] was over 100 µM in each case. The compound further displayed a TGI in [7] of 93.5 µM.

As for `CN(CC#N)C1CCCC[C@H]1O` (some centres undefined), the TGI in experiment [1], in [2], in experiment [3], in experiment [4], in experiment [5] and in [6] was over 100 µM throughout. In addition, in experiment [7], the TGI was over 100 µM.

Turning to `CN1C(c2ccccc2)CS(=O)(=O)CS1(=O)=O` (centres undefined), the TGI in experiment [1], in [2], in experiment [3], in [4], in experiment [5] and in experiment [7] was over 100 µM in each case.

For the compound `O=C(Cc1csc(-c2nc(CC(=O)NNc3ccccc3)cs2)n1)NNc1ccccc1`, the TGI in experiment [1], in experiment [2], in experiment [3], in experiment [5], in [6] and in experiment [7] was over 100 µM in each case.

Take `CC(=O)[O-].[Mn+3].[O-]c1ccccc1C=NCCN=Cc1ccccc1[O-]`: the GI50 in experiment [1] is 58.9 µM; in experiment [2], over 100 µM; in [3] it was over 100 µM; in experiment [4] it was over 100 µM; in [5], over 100 µM; in [6], over 100 µM. Further, the GI50 in experiment [7] was 96.4 µM. Moreover, the TGI in experiment [1], in experiment [2], in [3], in experiment [4], in experiment [5] and in experiment [6] was over 100 µM throughout. The same compound gave a TGI in experiment [7] of over 100 µM.

As for `NCCN.NCCN.O=C[O-].O=C[O-].[Co+3].[O-][Cl+3]([O-])([O-])[O-]`, the GI50 in experiment [1], in experiment [3], in experiment [4], in experiment [5], in experiment [6] and in experiment [7] was over 100 µM each time. For the same compound, the TGI in experiment [1], in experiment [3], in experiment [4], in experiment [5], in [6] and in experiment [7] was over 100 µM each time.

With `CCOC(=O)C(=O)Nc1ccc(Cl)cc1C`, the TGI in [1], in experiment [2], in experiment [3], in experiment [4], in [5] and in experiment [6] was over 100 µM in each case. The same compound showed a TGI in [7] of over 100 µM.

Regarding `Cc1cc2cn3c4ccc(O)cc4[nH]c(=O)c3c2cc1C`, the GI50 in experiment [1] was 0.0744 µM; in experiment [8], 0.071 µM; in [3], 0.026 µM; in experiment [4], 0.0105 µM; in experiment [5], 0.0679 µM; in experiment [6] it was 0.0399 µM. Moreover, in experiment [7], the GI50 was 0.223 µM. Besides, the TGI in [1] turned out to be 1.4 µM; in experiment [8], 1.22 µM; in [3], 1.07 µM; in experiment [4] it was 1.53 µM; in experiment [5], 1.3 µM; in [9], 0.0121 µM. The TGI in experiment [6] turned out to be 0.859 µM; in [7] it was 2.02 µM.

Consider `O=S(=O)(SCc1ccccc1)C(c1ccccc1)c1ccccc1`, for which the TGI in experiment [1] is 77.6 µM; in experiment [2], over 100 µM; in experiment [3] it was over 100 µM; in [4] it was 26.9 µM; in experiment [5] it was over 100 µM; in experiment [6], 54.5 µM. The compound also yielded a TGI in experiment [7] of over 100 µM.

Regarding `O=C(CC1(O)C(=O)Nc2ccccc21)c1ccco1` (centres undefined), the TGI in experiment [1], in experiment [2], in experiment [4], in [6] and in experiment [7] was over 100 µM each time.

For `COC(=O)CCC(=O)Nc1cc(Cl)ccc1Cl`, the TGI in experiment [1], in [2], in experiment [3], in experiment [4], in experiment [5] and in [6] was over 100 µM in each case. Further, in [7], the TGI was over 100 µM.

Regarding `CN(C)/N=C(/c1nc2ccc([N+](=O)[O-])cc2[nH]c1=O)C(O)c1ccco1` (centres undefined), the TGI in experiment [1], in experiment [2], in [3], in experiment [4], in experiment [5] and in experiment [6] was over 100 µM in each case. For the same compound, the TGI in experiment [7] is over 100 µM.

In the case of `O=C(O)/C(Cl)=C(\Cl)C(=O)NC1C2CC3CC(C2)CC1C3` (centres undefined), the TGI in experiment [1], in experiment [2], in [3], in experiment [4], in experiment [5] and in experiment [6] was over 100 µM each time. The same compound gave a TGI in experiment [7] of over 100 µM.

Turning to `COc1ccc(C(=O)C(c2ccc(OC)cc2)C2OC(=O)C(Cl)=C2Cl)cc1` (centres undefined), the TGI in experiment [1], in experiment [2], in [3], in experiment [4], in experiment [5] and in experiment [6] was over 100 µM each time. Moreover, the TGI in experiment [7] is over 100 µM.

Consider `CC(=O)OC1CC2Oc3ccc(C)cc3C(C)(O2)C1=O` (centres undefined), for which the TGI in [1], in [2], in [3], in [4] and in experiment [6] was over 100 µM each time.

For `Cc1ccc(NC(=O)C(=O)CC(=O)C2CCOC2=O)c(C)c1` (centres undefined), the TGI in [1], in experiment [2], in [3], in experiment [4], in experiment [5] and in experiment [6] was over 100 µM throughout. Moreover, the TGI in experiment [7] was over 100 µM.

Turning to `O=C(Cc1nc2ccccc2s1)C(=O)Nc1cccc(Cl)c1`, the TGI in experiment [1], in experiment [2], in experiment [3], in experiment [4], in [5] and in experiment [6] was over 100 µM throughout. This compound also had a TGI in experiment [7] of over 100 µM.

On to `COc1cc(O)c2c(c1)C(=O)C=C(Cl)C2=O`, for which the TGI in experiment [1], in experiment [2], in [3], in [4], in experiment [5] and in experiment [6] was over 100 µM each time. In addition, in [7], the TGI is over 100 µM.

In the case of `COC(=O)Nc1nc2ccc(C(=O)c3ccc(N(C)C4COC4)cc3)cc2[nH]1`, the GI50 in experiment [1] was 0.713 µM; in [10], 0.346 µM; in experiment [8], 0.608 µM; in [3], 0.397 µM; in experiment [4] it was 0.355 µM; in [5], 0.716 µM. For the same compound, the GI50 in [6] is 1.99 µM; in experiment [7], 0.746 µM. Also, the TGI in experiment [1], in [10], in experiment [8], in experiment [3], in [4] and in [5] was over 100 µM in each case. The TGI in experiment [6] and in [7] was over 100 µM each time.

In the case of `O=C(Nc1cccc(Cc2cccc(NC(=O)c3ccccc3)c2)c1)c1ccccc1`, the TGI in [1] was over 100 µM; in experiment [2], 99.7 µM; in experiment [3], over 100 µM; in [4], over 100 µM; in experiment [5] it was over 100 µM; in experiment [6], over 100 µM. The compound further yielded a TGI in experiment [7] of over 100 µM.

Regarding `COC(=O)NC1(NC(=O)OC)NC(=O)c2cc(OC)c(OC)c(OC)c2N1`, the TGI in experiment [1], in experiment [2], in experiment [10], in experiment [8], in [3] and in experiment [4] was over 100 µM throughout. In addition, the TGI in experiment [5], in experiment [6] and in [7] was over 100 µM throughout.

Consider `O/N=C1/C(=C/c2ccc(Oc3ccccc3)cc2)CCCC1C(NO)c1ccc(Oc2ccccc2)cc1` (centres undefined), for which the TGI in experiment [1] is 63.3 µM; in [2], over 100 µM; in experiment [3], over 100 µM; in experiment [4], over 100 µM; in experiment [5], over 100 µM; in experiment [6], over 100 µM. For the same compound, the TGI in experiment [7] is over 100 µM.

As for `CC1(C)OB(O)OC1(C)C`, the TGI in [1], in [2], in experiment [4], in [5], in experiment [6] and in [7] was over 100 µM throughout.

`O=C(/C=C/C=C/c1c(C2CC2)nc2ccccc2c1-c1ccc(F)cc1)c1cccs1`: the GI50 is 2.35 µM in experiment [1]; 0.467 µM in [10]; 2.58 µM in [8]; 1.9 µM in experiment [3]; 1.67 µM in [4]; 1.99 µM in experiment [5]. Besides, the GI50 in [6] is 1.5 µM. The TGI is over 100 µM in experiment [1]; over 100 µM in [10]; over 100 µM in [8]; 5.4 µM in [3]; 11.8 µM in experiment [4]; 4.95 µM in experiment [5]. In addition, in experiment [6], the TGI was 3.49 µM.
